{"source": "paper PMC6372279", "about": "(eLife, 2019)", "key": {"human IR-B": {"target": "human IR-B (Homo sapiens, UniProt P06213)", "sequence (P06213 28-758 limits assumed)": "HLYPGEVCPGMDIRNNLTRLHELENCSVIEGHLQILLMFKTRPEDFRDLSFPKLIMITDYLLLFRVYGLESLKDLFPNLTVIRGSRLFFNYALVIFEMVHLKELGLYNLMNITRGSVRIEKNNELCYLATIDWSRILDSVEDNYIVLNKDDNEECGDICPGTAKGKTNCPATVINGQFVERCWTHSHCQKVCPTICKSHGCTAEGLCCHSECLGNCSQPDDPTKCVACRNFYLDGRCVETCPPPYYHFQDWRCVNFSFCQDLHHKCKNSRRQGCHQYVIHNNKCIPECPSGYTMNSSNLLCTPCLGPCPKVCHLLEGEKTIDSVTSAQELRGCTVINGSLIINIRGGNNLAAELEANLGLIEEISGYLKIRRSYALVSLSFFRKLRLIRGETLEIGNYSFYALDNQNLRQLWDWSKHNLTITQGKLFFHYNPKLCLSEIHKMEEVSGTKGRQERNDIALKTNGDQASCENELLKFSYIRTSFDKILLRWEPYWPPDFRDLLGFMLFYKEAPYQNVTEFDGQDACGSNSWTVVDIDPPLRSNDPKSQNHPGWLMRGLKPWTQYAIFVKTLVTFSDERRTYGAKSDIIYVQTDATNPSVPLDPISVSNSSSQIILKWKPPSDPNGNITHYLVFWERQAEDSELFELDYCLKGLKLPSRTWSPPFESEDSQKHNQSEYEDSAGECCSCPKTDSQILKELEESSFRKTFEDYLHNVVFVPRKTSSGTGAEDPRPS", "sequence (P06213 763-1382 partner limits assumed)": "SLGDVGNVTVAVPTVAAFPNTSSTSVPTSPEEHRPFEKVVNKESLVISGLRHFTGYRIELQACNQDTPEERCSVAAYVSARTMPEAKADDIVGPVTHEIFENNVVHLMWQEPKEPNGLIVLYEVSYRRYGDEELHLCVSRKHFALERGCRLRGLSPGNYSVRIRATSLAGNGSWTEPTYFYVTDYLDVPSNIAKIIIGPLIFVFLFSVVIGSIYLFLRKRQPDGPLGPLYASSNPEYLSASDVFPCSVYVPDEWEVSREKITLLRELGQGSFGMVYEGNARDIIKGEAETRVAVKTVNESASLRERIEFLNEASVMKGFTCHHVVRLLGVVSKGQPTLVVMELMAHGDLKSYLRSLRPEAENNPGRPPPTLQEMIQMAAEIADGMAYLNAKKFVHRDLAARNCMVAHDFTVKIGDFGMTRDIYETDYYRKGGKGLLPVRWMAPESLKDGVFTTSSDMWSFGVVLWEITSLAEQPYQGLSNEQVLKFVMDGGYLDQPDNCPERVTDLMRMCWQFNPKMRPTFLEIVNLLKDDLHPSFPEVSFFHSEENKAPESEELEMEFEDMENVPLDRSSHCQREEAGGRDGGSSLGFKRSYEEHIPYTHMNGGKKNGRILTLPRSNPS", "assay": "cell-based"}, "[1]": {"target": "human insulin receptor isoform B (hIR-B) (Homo sapiens, UniProt P06213)", "sequence (P06213 28-758 limits assumed)": "as the sequence (P06213 28-758 limits assumed) above", "sequence (P06213 763-1382 partner limits assumed)": "as the sequence (P06213 763-1382 partner limits assumed) above", "assay": "biochemical", "format": "binding"}, "[2]": {"test_system": "STZ-induced hyperglycemic mice", "details": "mouse, in vivo"}}, "note": "Bridge positions count the residues as written; N and C are the ends. Square brackets hold non-standard residues; d marks the D form. Ends that are not written are not given here. I, II: the chains in the order shown. Gla = N[C@@H](CC(C(=O)O)C(=O)O)C(=O)O"}
{"substance": "I: NSDTPKHRCGSELADQYVQLCH-NH2 / II: GIV[Gla]VCCDNPCTVATLRTFCH-OH (disulfide I:9-II:7, I:21-II:20, II:6-II:11) [Con-Ins G3]", "values": [{"measurement": "potency against the human IR-B compared with Con-Ins G1 (in words)", "setting": "human IR-B", "value": "more than one order of magnitude less potent"}]}
{"substance": "I: NSDTPWNRCGSQITDSYR[Gla]LCPH / II: GVV[Gla]HCCKRACSNA[Gla]FMQFC-NH2 (disulfide I:9-II:7, I:21-II:20, II:6-II:11) [Con-Ins T2]", "values": [{"measurement": "EC50", "setting": "human IR-B", "value": 15.5, "unit": "nM"}, {"measurement": "IC50", "setting": "[1]", "value": 31.8, "unit": "nM"}]}
{"substance": "I: SDSGTTLVRRRLCGS[Gla]LVTYLGELCLGN / II: GIV[Gla]DCCYNDCTDEKLKEYCHTLQ-NH2 (disulfide I:13-II:7, I:25-II:20, II:6-II:11) [Con-Ins K1]", "values": [{"measurement": "Reversal of hyperglycemia (in words)", "setting": "[2]", "value": "effectively reversed hyperglycemia"}, {"measurement": "Blood glucose, starting value", "setting": "[2]; SEM", "value": "404 (±25) mg/dL"}]}
